Measured values as given in patent publication US20230226092A1, “CANCER […] ON G[…]” (NuCana plc, priority 2015, published 2023).
“Also recorded” adds a separate entry of the source.

What was measured:
[1] = system: primary acute myeloid leukaemia (AML) blasts; test: In vitro cytotoxicity assay (annexin V apoptosis) in primary acute myeloid leukemia cells; type: cell-based, human
Description: NUC-1031 was assayed for its cytotoxic effects on primary cultures of acute myeloid leukaemia (AML) blasts. LD50 values (the concentration required to kill 50% of the tumour cells in culture) were calculated in respect of NUC-1031 and gemcitabine.
Bone marrow samples were collected in ethylenediaminetetraacetic acid (EDTA) from newly diagnosed, previously untreated, acute myeloid leukemia (AML) patients. AML blasts were enriched by density gradient centrifugation using Histopaque (Sigma, Poole, UK) and were subsequently maintained in Roswell Park Memorial Institute medium (RPMI) supplemented with 10% foetal bovine serum (FBS). Cells were treated with Gemcitabine or NUC-1031 at concentrations between 0.25 µM and 10 µM, and incubated for 48h. All cultures were maintained at 37° C. in a 5% CO2 humidified atmosphere.
Cells were harvested and labelled with CD34-fluorescein isothiocyanate (FITC) (BD Biosciences, Buckingham, UK) and then resuspended in 200 µl of binding buffer containing 4µl of annexin V labelled with allophycocyanin (APC) (eBioscience Ltd, Hatfield, UK). Apoptosis was quantified in the CD34^+ AML cells using an Accuri C6 flow cytometer (Becton Dickinson, CA, USA). At least 10,000 events were acquired and data were subsequently analysed using FlowJo software (Tree Star Inc., Ashland, OR, USA). All LD50 values (concentration of drug required to kill 50% of cells) were derived from the dose-response curves.

[2] = system: CD34^+/CD123^+ leukaemic stem cells; test: Quantification of CD34+/CD123+ sub-populations in primary AML cells; type: cell-based, human
Description: Putative leukaemic stem cells were identified by dual expression of CD34 and CD123. The relative sensitivity of these cells to the effects of gemcitabine and NUC-1031 were assessed as a function of the percentage of these cells that remained viable following exposure to molar equivalents of each agent.

[3] = ProGem1 dose escalation clinical study: safety and tolerability; type: in vivo, human
Description: Although the primary objectives of the dose escalation part of the study were to determine the Recommended Phase II Dose (RP2D) and safety profile, secondary objectives included determining the PK profile, however effective treatment of patients with a range of refractory cancers has also been observed as part of this study.
NUC-1031 was administered as a 5 to 30 minute intravenous slow bolus injection. • Schedule A: NUC-1031 was administered on days 1, 8, 15 of a 4 weekly Cycle. • Schedule B: NUC-1031 was administered on days 1, 5, 8, 12, 15, 19, of a 4 weekly Cycle.

[4] = system: Lin^-/CD34^+/CD38^-/CD123^+ CSCs of KG1a cells; test: Immunophenotypic identification of the leukaemic stem cell compartment in KG1a; type: cell-based, human; conditions: 72 h, sub-micromolar concentrations
Description: (§1) KG1a cells were cultured for 72 hours in the presence of a wide range of concentrations of each nucleoside analogue and their respective ProTides. Cells were then harvested and labelled with a cocktail of anti-lineage antibodies (PE-cy7), anti-CD34 (FITC), anti-CD38 (PE) and anti-CD123 (PERCP cy5). The sub-population expressing a leukaemic stem cell (LSC) phenotype were subsequently identified and were expressed as a percentage of all viable cells left in the culture. The percentages of stem cells remaining were then plotted on a dose-response graph and the effects of the ProTides were compared with the parental nucleoside.
as §1, with “compound assayed.” for “nucleoside analogue and their respective ProTides.”, “CSC” for “leukaemic stem cell (LSC)”, “CSCs” for “stem cells”, “NUC-1031 (and its purified isomers)” for “ProTides”, “gemcitabline.” for “the parental nucleoside.”

Substance: gemcitabine-[phenyl-benzoxy-L-alaninyl)]-phosphate [NUC-1031]
- cytotoxic potency on CSCs and non-stem cancer cells compared with gemcitabine ([1]; AML blast cultures): increased potency
- mean LD50 ([1]; primary AML blasts, CD34+ cells, 48h, annexin V): 1.6 µM
- CD34^+/CD123^+ leukaemic stem cell viability as compared to gemcitabine ([2]; 1 µM and 2.5 µM): significant reductions
- depletion of CSCs (CD34^+/CD123^+ cells) compared with gemcitabine ([2]; AML blast cultures, micromolar concentrations): enhanced ability to deplete CSCs; also recorded: preferentially depletes CD34^+/CD123^+ cells
- Adverse events (grade) / tolerability ([3]; Patient 004, breast cancer, 500 mg/m^2 weekly): tolerated treatment well
- Adverse events (grade) / tolerability ([3]; Patient 005, ovarian cancer, 500 mg/m^2 weekly): tolerated treatment well
- Adverse events (grade) / tolerability ([3]; Patient 007, colorectal cancer, possible linked to splenomegaly at baseline): thrombocytopaenia (G3)
- Adverse events (grade) / tolerability ([3]; Patient 008, cancer of unknown primary, 375 mg/m^2 twice weekly, pleural effusion unlikely related to study drug): transient (G3) transaminitis (ALT and AST); also recorded: pleural effusion (G3)
- Adverse events (grade) / tolerability ([3]; Patient 010, endometrial cancer, neutropenia in Cycle 1 at 750 mg/m^2): neutropenia (G3); also recorded: transient Grade 3 anaemia
- Adverse events (grade) / tolerability ([3]; Patient 011, uterine carcinosarcoma, 375 mg/m^2 twice weekly): transient neutropaenia (G3); also recorded: low haemoglobin (G2)
- Adverse events (grade) / tolerability ([3]; Patient 012, cholangiocarcinoma): tolerated treatment well
- Adverse events (grade) / tolerability ([3]; Patient 015, cancer of unknown primary, Cycle 1 Day 8): thrombocytopenia (G3); also recorded: lymphopenia (G3); also recorded: neutropenia (G2)
- Adverse events (grade) / tolerability ([3]; Patient 017, lung cancer): tolerated NUC-1031 well
- Adverse events (grade) / tolerability ([3]; Patient 021, fallopian tube cancer, 625 mg/m^2 weekly): tolerated NUC-1031 well
- Adverse events (grade) / tolerability ([3]; Patient 027, ovarian cancer, ALT after Cycle 1 Day 1 at 725 mg/m^2, a DLT): elevated ALT (G3); also recorded: mild neutropenia
- ALT ([3]; Patient 027, ovarian cancer, day 7, from 96 at baseline): 256
- Adverse events (grade) / tolerability ([3]; Patient 030, ovarian cancer, 725 mg/m^2 weekly): tolerated study drug well
- Adverse events (grade) / tolerability ([3]; Patient 036, renal carcinoma, 825 mg/m^2 weekly, thrombocytopenia following Cycle 5 Day 1): thrombocytopenia (G3); also recorded: tolerating NUC-1031 much better than their previous regimen
- Adverse events (grade) / tolerability ([3]; Patient 037, pancreatic cancer, 1,000, then 900 mg/m^2 weekly): loss of appetite, severe fatigue
- Adverse events (grade) / tolerability ([3]; Patient 038, ovarian cancer, 900 mg/m^2 weekly, main toxicity, days 3 to 4): delayed onset fatigue
- Adverse events (grade) / tolerability ([3]; Patient 040, cholangiocarcinoma, source was a stent blocked with tumour and a biliary tract cyst): infection (G3)
- Adverse events (grade) / tolerability ([3]; Patient 041, breast cancer, 900 mg/m^2 weekly, fatigue during Cycle 3, neutropenia after Cycle 1 Day 8 and Day 15): fatigue (G3); also recorded: neutropenia
- Adverse events (grade) / tolerability ([3]; Patient 042, cholangiocarcinoma, 900 mg/m^2 weekly, days 3-5): delayed onset fatigue (G2)
- Adverse events (grade) / tolerability ([3]; Patient 043, ovarian cancer, 900 mg/m^2 weekly, fatigue on days 4 and 5): delayed onset fatigue (G2); also recorded: Leg oedema developed to G3
- Adverse events (grade) / tolerability ([3]; Patient 044, lung cancer, 900, then 825 mg/m^2 weekly): G3 lung infection; also recorded: thrombocytopenia
- Adverse events (grade) / tolerability ([3]; Patient 046, adrenal carcinoma, all G3 events in Cycle 1 at 1,000 mg/m^2, fatigue (G3) and neutropenia (G2) following Cycle 8 D1): delayed onset fatigue, nausea and vomiting (all G3); also recorded: neutropenia (G2)
- Adverse events (grade) / tolerability ([3]; Patient 048, ovarian cancer, ALT, AST, neutropaenia (G2), ALP following Cycle 1 Day 1 at 1,000 mg/m^2, neutropenia (G3) in Cycle 4): ALT, (G3, a DLT); also recorded: AST and neutropaenia (G2); also recorded: ALP (G1); also recorded: neutropenia (G3); also recorded: diarrhoea following each dose
- Adverse events (grade) / tolerability ([3]; Patient 050 (202), oesophageal cancer, following Cycle 1 Day 1 at 900 mg/m^2): ALT and fatigue, both G3
- Adverse events (grade) / tolerability ([3]; Patient 051 (203), anal cancer, 900 mg/m^2 weekly): tolerated treatment well
- Adverse events (grade) / tolerability ([3]; Patient 055 (207), ovarian cancer, 825 mg/m^2 weekly): nausea and vomiting post chemotherapy
- Adverse events (grade) / tolerability ([3]; Patient 057 (209), ovarian cancer, Cycle 1 Day 15, 900 mg/m^2 weekly): anaemia and ascites both G3
- Adverse events (grade) / tolerability ([3]; Patient 058 (210), lung cancer, Cycle 1 at 825 mg/m^2, may be partly due to a congenital liver condition): G3 transaminitis (ALT), a DLT
- Adverse events (grade) / tolerability ([3]; Patient 059 (211), cervical cancer, thrombocytopenia in Cycle 1 at 825 mg/m^2, fatigue during Cycle 3): thrombocytopenia (G3); also recorded: fatigue (G3)
- Adverse events (grade) / tolerability ([3]; Patient 060 (212), pancreatic cancer, 825 mg/m^2 weekly, required new stent): ALP, AST, ALT, all G3
- Adverse events (grade) / tolerability ([3]; Patient 061 (213), colorectal cancer, 825 mg/m^2 weekly): no nausea or vomiting during treatment
- Adverse events (grade) / tolerability ([3]; Patient 063 (215), ovarian cancer, fatigue on Cycle 3): fatigue (G3); also recorded: anaemia and neutropenia
- Adverse events (grade) / tolerability ([3]; Patient 067 (219), osteosarcoma, 825 mg/m^2 weekly, neutropenia towards the end of each Cycle): neutropenia G2; also recorded: Tolerated study drug well
- Adverse events (grade) / tolerability ([3]; Patient 069 (221), colorectal cancer, G4/G3 during Cycle 3 at 825 mg/m^2, G3 following Cycle 4 D1 at 750, G2 at C5 D8): neutropenia (G4); also recorded: neutropenia and leukopenia, G3; also recorded: neutropenia and leukopenia, G2
- targeting of CSCs compared with Gemcitabine [4]: preferential targeting of CSCs
